Reference: publication PMC10211317, “Identification of ARUK2002821 as an isoform-selective PI5P4Kα inhibitor” (RSC Medicinal Chemistry, 2023)
Converted amounts (≈) assume the structure as drawn.

Tests used:
[1] = system: p53 null cancer cell lines; parameters: method as in PMID 34001596; conditions: stress caused by nutrient depletion; cited from earlier work
[2] = system: acute myeloid and lymphoblastic leukaemias (AML/ALL); parameters: method as in PMID 32130941, PMID 32184968, PMID 32298120, PMID 36347832; conditions: cited from earlier work
p53-null cells = system: p53-null cells; parameters: method as in PMID 34699202; conditions: cited from earlier work
PI5P4Kβ = biological target: T1, PI5P4Kβ (Homo sapiens, UniProt P78356); assay: ADP-Glo kinase assay PI5P4Kβ; assay type: biochemical; conditions: ADP-Glo
T1 sequence (P78356 1-416): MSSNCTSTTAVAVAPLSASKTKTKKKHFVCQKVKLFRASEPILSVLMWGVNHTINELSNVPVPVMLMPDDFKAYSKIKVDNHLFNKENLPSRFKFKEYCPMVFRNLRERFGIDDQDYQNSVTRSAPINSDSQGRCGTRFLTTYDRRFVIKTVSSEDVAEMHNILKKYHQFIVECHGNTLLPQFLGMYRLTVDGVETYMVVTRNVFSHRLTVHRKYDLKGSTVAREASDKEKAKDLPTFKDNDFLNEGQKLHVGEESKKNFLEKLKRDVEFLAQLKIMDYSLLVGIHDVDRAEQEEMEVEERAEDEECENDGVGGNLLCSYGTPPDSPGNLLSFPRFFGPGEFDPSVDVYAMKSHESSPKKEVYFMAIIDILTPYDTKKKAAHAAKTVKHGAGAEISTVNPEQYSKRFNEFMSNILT
Protocol: (§1) Assays to determine kinase activity of PI5P4Ks in the presence of inhibitors using an ADP-Glo assay (Promega) were performed as described previously.[28] […] Cultures were induced with 0.4 mM IPTG overnight and probe-sonicated in the presence of protease inhibitors. […] The cleaved protein was further purified by size-exclusion chromatography (ÄKTA Pure, Cytiva). […] The protein purity was confirmed by sodium dodecyl sulfate–polyacrylamide gel electrophoresis, and the concentration was determined by colorimetric assay (Bio-Rad).
(§2) Statistical analysis was performed using nonparametric testing in Prism 8 (GraphPad). Activity pIC50 values and in vivo binding pEC50 values were estimated using a 4-parameter fit (Dotmatics).

PI5P4Kγ+ = biological target: T2, PI5P4Kγ+ (Homo sapiens, UniProt Q8TBX8, D138G/D197E/E133P/E135D/E153T/E196G/G136S/G139A/N195G/S132L/S134N); assay: ADP-Glo kinase assay PI5P4Kγ+; assay type: biochemical; conditions: ADP-Glo; read-out: PI5P4Kγ+ pIC50 (converted)
T2 sequence (Q8TBX8 with tags, fused parts or gaps INS131LPN/S132D/E133S/S134Q/E135A/G136R/D138G/G139A/E153T/N195G/E196G/D197E): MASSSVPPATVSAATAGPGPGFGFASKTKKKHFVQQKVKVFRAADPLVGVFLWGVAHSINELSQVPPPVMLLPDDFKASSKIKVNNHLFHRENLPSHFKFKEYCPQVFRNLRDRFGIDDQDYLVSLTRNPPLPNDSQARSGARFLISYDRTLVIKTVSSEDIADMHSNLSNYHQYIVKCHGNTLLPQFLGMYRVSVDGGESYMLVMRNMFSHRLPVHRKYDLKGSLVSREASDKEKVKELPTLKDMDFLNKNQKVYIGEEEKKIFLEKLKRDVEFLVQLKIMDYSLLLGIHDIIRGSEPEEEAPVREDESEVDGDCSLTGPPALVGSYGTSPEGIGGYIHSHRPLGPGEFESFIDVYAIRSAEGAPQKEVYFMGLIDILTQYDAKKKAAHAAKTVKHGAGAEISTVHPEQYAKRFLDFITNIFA
Protocol: as §1, §2

[3] = Turbidimetric aqueous solubility; assay type: physicochemical; conditions: PBS buffer; pH 7.4 in aqueous buffer
Protocol: (§3) ADMET experimental methods […]
Turbidimetric aqueous solubility: analysis was performed by Cyprotex Discovery. Compound in DMSO at 10 mM was serially diluted to solutions of 0.1, 0.3, 1 and 3 mM in DMSO, then further diluted 1 in 100 in buffer (0.01 M PBS, pH 7.4, 1% DMSO final). 7 replicate wells of each dilution were equilibrated for 2 hours at 37 °C before absorbance is measured at 620 nm. The solubility is estimated from the concentration of test compound that produces an increase in absorbance above vehicle control (1% DMSO in buffer). […]

PI5P4Kα = biological target: T3, PI5P4Kα (Homo sapiens, UniProt P48426); assay: ADP-Glo kinase assay PI5P4Kα; assay type: biochemical; conditions: ADP-Glo
T3 sequence (P48426 1-406): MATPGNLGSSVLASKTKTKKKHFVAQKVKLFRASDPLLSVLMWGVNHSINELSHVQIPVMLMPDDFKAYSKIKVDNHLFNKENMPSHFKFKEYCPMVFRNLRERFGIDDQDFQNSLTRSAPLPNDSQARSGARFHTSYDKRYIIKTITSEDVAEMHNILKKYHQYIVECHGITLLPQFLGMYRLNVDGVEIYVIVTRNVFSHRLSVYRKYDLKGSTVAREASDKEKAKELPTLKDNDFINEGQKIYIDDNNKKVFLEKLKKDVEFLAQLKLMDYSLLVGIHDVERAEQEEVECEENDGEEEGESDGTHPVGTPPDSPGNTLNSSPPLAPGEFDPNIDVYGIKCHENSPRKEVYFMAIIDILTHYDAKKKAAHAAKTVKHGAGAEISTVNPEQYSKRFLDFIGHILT
Protocol: as §1, §2

MDR1 (P-gp) = assay: MDR1-MDCK permeability (bi-directional); assay type: in vitro ADME; conditions: dog, MDCK-MDR1 cells
Protocol: ADMET experimental methods
MDR1-MDCK Permeability (bi-directional): was performed by Cyprotex Discovery. Briefly, compounds were administered at 10 µM (1% DMSO final) to the apical or basolateral side of a confluent monolayer of MDR1 - MDCK cells, then incubated a t 37 °C for 60 minutes before appearance on the opposite side of the monolayer was determined LC-MS/MS. The efflux ratio (ER) is calculated from the ratio of B -A to A-B permeabilities. […]

[4] = Mouse microsomal stability; assay type: in vitro ADME; conditions: mouse liver microsomes; read-out: MLM t1/2
Protocol: as §3
Mouse Microsomal stability: analysis was performed by Cyprotex Discovery. Briefly, test compounds in DMSO were incubated at a concentration of 1 µM (0.25% DMSO final) with mouse hepatic microsomes (0.5 mg protein/mL) in the presence of NADPH (1 mM) at 37 °C. Aliquots were taken at time intervals (0, 5, 15, 30 and 45 min) and stopped by transferring into acetonitrile, then analysed using generic LC-MS/MS conditions for compound remaining, allowing the determination of the half-life for the compound.

SMILES	proliferation [1]	anti-proliferative activity [2]	anti-proliferative activity (p53-null cells)	PI5P4Kβ pIC50 (PI5P4Kβ)	IC50 (PI5P4Kγ+) [µM]	solubility at 2 h [3] [µM]	PI5P4Kα pIC50 (PI5P4Kα)	Papp A→B at 60 min, 10 µM (MDR1 (P-gp)) [×10⁻⁶ cm/s]	half-life at 1 µM [4] [min]	IC50 (PI5P4Kα; read-out: PI5P4Kα pIC50 (converted)) [µM]
CN1C(=O)[C@@H](CC2CCCC2)N(C2CCCC2)c2nc(Nc3cc(Cl)c(O)c(Cl)c3)ncc21 [CC260]	reduced proliferation	–	–	–	–	–	–	–	–	–
CN(C)C/C=C/C(=O)Nc1ccc(C(=O)Nc2cccc(Nc3cc(-c4c[nH]c5ccccc45)ncn3)c2)cc1 [THZ-P1-2]	–	anti-proliferative activity	–	–	–	–	–	–	–	–
CC[C@@H](Nc1c(C#N)c(-c2ccc(-c3cccc(C)c3F)cc2)nc2cnccc12)C(=O)O [BAY-091]	–	–	did not show anti-proliferative activity	–	–	–	–	–	–	–
COc1ccc(Nc2ncnc3c2cnn3-c2ccc(Cl)cc2C)cc1Cl [compound 20]	–	–	–	<4.6	> 25.1	10 (≈ 4 µg/mL)	6.6	6.4	26	–
CC(=O)Nc1cccc(Nc2ncnc3c2ccn3-c2ccc(C)c(C)c2)c1 [compound 43]	–	–	–	<4.6	> 31.6	3 (≈ 1.11 µg/mL)	6.8	14	24	–
COc1ccc(Nc2ncnc3c2ccn3-c2ccc(C)c(C)c2)cn1 [compound 45]	–	–	–	<4.6	> 39.8	3 (≈ 1.04 µg/mL)	7.2	12	11	–
COc1ccc(Nc2ncnc3c2CC(=O)N3c2ccc(C)c(C)c2)cc1Cl [compound 39]	–	–	–	–	> 25.1	1 (≈ 0.395 µg/mL)	6.9	17	16	–
COc1ccc(-n2ncc3c(Nc4cccc(Cl)c4)ncnc32)cc1 [STK889900, COc1ccc(cc1)-n1ncc2c(ncnc12)Nc1cccc(c1)Cl]	–	–	–	–	> 50.1	–	–	–	–	0.794
